Data reported in publication PMC3846562, “Retro-Inverso Carbohydrate Mimetic Peptides with Annexin1-Binding Selectivity, Are Stable In Vivo, and Target Tumor Vasculature” (PLoS ONE, 2013).
Where a SMILES comes first, the peptide text is derived from it. [ ]: non-standard residue; d: D form. The star is where a group is joined. 5TAMRA = CN(C)c1ccc2c(c1)Oc1cc(N(C)C)ccc1C21OC(=O)c2cc(C(=O)*)ccc21

How the values were obtained:
Anxa1 [1] = target: T1, Anxa1 (Homo sapiens, UniProt P04083); assay: Inhibition assay of cell binding with anti-Anxa1 antibody; format: cell-based; conditions: A549 cells; for influence of normal rabbit IgG on binding capacity to cells: normal rabbit IgG 4 µg per well 30 min prior to peptide
T1 construct: endogenous in cells; host or cells: A549 cells
T1 sequence (P04083 1-346): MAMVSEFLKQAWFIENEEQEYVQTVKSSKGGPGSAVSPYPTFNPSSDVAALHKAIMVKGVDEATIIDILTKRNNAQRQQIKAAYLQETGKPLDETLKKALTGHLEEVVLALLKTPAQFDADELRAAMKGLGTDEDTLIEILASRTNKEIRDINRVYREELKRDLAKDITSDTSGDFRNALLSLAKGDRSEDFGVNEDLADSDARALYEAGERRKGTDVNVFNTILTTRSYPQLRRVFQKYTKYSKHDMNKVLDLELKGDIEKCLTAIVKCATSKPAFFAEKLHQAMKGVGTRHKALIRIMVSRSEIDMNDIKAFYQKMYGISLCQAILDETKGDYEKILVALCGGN
Description: For inhibition assays, anti-Anxa1 antibody or control normal rabbit IgG (4 µg each) was added to each well and incubated for 30 min. TMR-IF7 or TMR-RIF7 (10 µg/ml) were then added and incubated at 37°C for 30 min. The solution was removed and cells were washed three times with ice-cold PBS (pH 7.4) and then visualized under a fluorescent microscope (Leica DMI 4000B, Germany).
(§1) For direct competition studies, non-labeled IF7 or RIF7 (10 µg/ml) was added to each well and incubated for 30 min. TMR-IF7 or TMR-RIF7 (10 µg/ml) were then added and incubated at 37°C for 30 min. The solution was removed and the cells were washed three times with ice-cold PBS (pH 7.4) and then visualized under a fluorescent microscope (Leica DMI 4000B, Germany). The fluorescent signal intensity of each well was quantified using an F-7000 FL spectrophotometer.

Anxa1 [2] = target: T1, Anxa1; assay: Direct competition study with non-labeled peptide; format: cell-based; conditions: A549 cells
Description: as §1

A549 cells = assay: Cell binding after pre-incubation in complete medium (10% FBS); format: cell-based, human; conditions: 10 min; for fluorescent intensity after incubation of peptide with complete medium prior to cells: complete medium containing 10% FBS, 37°C, then A549 cells, IF7 p<0.001, RIF7 p<0.01
Description: A549 cells were seeded (5×10^3 cells/well) in 96-well plates (Corning Coaster, Tokyo, Japan) and incubated for 12 h. Cells were incubated with serum free medium (special Dulbecco's modified Eagle medium supplemented with 100 U/mL penicillin, […] streptomycin) containing TMR-RIF7, TMR-IF7, or TMR-RQ7 (TMR conjugated to reverse IF7: sequence RQWLLFI, composed of L-amino acids) at the concentration of 10 µg/ml. In addition, to verify the stability of modified peptides, TMR-IF7 and TMR-RIF7 were incubated with complete medium (special Dulbecco's modified Eagle medium supplemented with 10% heat-inactivated FBS, 100 U/mL penicillin, […] streptomycin) for 10 min at 37°C in advance of serum free medium. The solution was removed and cells were washed three times with ice-cold PBS (pH 7.4) and then visualized under a fluorescent microscope (Leica DMI 4000B, Germany).
as §1

lung melanoma (B16-F10) = format: in vivo, mouse
Description: (§2) B16-F10 cells (7.5×10^5 cells suspended in 250 µl PBS) were injected intravenously into BALB/c mice to establish a pulmonary metastatic melanoma model. Specifically, KBv cells (5×10^6cells suspended in 200 ml cell culture medium) were inoculated subcutaneously into the right hind legs of nude mice to produce a subcutaneous KBv xenograft model. Ex vivo real-time fluorescence imaging analysis was used to evaluate the tumor targeting activity of TMR-RIF7. One week after inoculation, TMR-IF7 or TMR-RIF7 (200 µl, 0.5 mg/ml in 5% glucose solution) was injected through the tail vein of mice bearing pulmonary tumors. The mice were then sacrificed and perfused intracardially with normal saline to compare tissue and tumor distribution of TMR-RIF7. Tumor-bearing lungs and other major organs, including hearts, livers, spleens and kidneys were removed, washed with saline, and imaged using a Cambridge Research & Instrumentation (CRi) in vivo imaging system (CRi, MA, USA). When subcutaneous KBv tumors were grown to a palpable size (about 8–10 mm diameter), the same process was carried out to evaluate tissue and tumor distribution of TMR-RIF7 in subcutaneous tumor-bearing nude mice. Next, 20 µg of each rabbit anti-Anxa1 antibody (N-19) or rabbit IgG antibody was injected 15 min prior to TMR-IF7 or TMR-RIF7 injection for inhibition assays in pulmonary tumor-bearing mice. Then, resulting images (spectral cube, containing a spectrum at every pixel) were loaded into Maestro™ 2.10 software and analyzed.

[3] = tested on: subcutaneous KBv xenografts; assay: Ex vivo fluorescence imaging, subcutaneous KBv xenograft model; format: in vivo; conditions: nude mice, both 30 min and 4 h after i.v. injection
Description: as §2, with “Next, 20 µg of each rabbit anti-Anxa1 antibody (N-19) or rabbit IgG antibody was injected 15 min prior to TMR-IF7 or TMR-RIF7 injection for inhibition assays in pulmonary tumor-bearing mice.” left out

[4] = Systemic distribution in dissected organs, ex vivo imaging; design: species or system mouse; conditions: for organ distribution of TMR-labeled peptide: major organs collected at 30 min and 4 h after i.v. injection
Description: as §2, with “Ex” for “B16-F10 cells (7.5×10^5 cells suspended in 250 µl PBS) were injected intravenously into BALB/c mice to establish a pulmonary metastatic melanoma model. Specifically, KBv cells (5×10^6cells suspended in 200 ml cell culture medium) were inoculated subcutaneously into the right hind legs of nude mice to produce a subcutaneous KBv xenograft model. Ex”

Anxa1 [5] = target: T2, Anxa1 (Mus musculus, UniProt P10107); assay: In vivo inhibition assay with anti-Anxa1 antibody in pulmonary tumor-bearing mice; conditions: 20 µg rabbit IgG 15 min prior to peptide
T2 construct: IF7 or RIF7 targets tumors through Anxa1 expressed on endothelial cell surfaces; from tissue; host or cells: pulmonary tumour vasculature of tumour-bearing mice (in vivo)
T2 sequence (P10107 1-346): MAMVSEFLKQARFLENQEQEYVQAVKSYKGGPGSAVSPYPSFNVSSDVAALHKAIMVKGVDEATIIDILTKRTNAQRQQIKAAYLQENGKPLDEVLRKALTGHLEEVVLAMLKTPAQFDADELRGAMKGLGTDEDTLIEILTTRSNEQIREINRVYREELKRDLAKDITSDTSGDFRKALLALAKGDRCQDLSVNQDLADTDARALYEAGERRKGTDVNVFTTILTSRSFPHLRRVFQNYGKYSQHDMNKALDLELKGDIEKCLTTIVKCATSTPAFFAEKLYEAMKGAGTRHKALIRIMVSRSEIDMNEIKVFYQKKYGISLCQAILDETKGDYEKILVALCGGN
Description: as §2, with “Ex” for “B16-F10 cells (7.5×10^5 cells suspended in 250 µl PBS) were injected intravenously into BALB/c mice to establish a pulmonary metastatic melanoma model. Specifically, KBv cells (5×10^6cells suspended in 200 ml cell culture medium) were inoculated subcutaneously into the right hind legs of nude mice to produce a subcutaneous KBv xenograft model. Ex”

tumor = conditions: mice; cited from earlier work
Source text: Hatakeyama's laboratory used peptide-displaying phage technology to generate a carbohydrate mimetic peptide with the consensus sequence IFLLWQR, which was designated IF7 [14]. IF7 has a special affinity for the tumor vasculature and functions as an efficient anticancer drug delivery vehicle, slowing tumor growth. Experiments confirmed that IF7 specifically binds to a 15-kDa fragment of annexin1 (Anxa1). Anxa1 is a member of the large annexin family of cytosolic proteins with calcium-dependent associations with cell membranes.

[6] = Stability of TMR-labeled peptides in mouse plasma; format: in vitro ADME; conditions: 37°C; for susceptibility to mouse plasma proteases (in words): incubated with fresh mouse plasma, HPLC
Description: Mouse blood was collected in serum-separation tubes containing heparin sodium and immediately centrifuged at 10,000 rpm for 10 min. Fresh mouse plasma was then removed and stored for further analysis. Then, 200 µg of TMR-RIF7 and TMR-IF7 was dissolved in 10 µl DMSO, added to 1 ml of the fresh plasma, and incubated at 37°C. A 50 µl aliquot was withdrawn from the incubation mixture at the time indicated, added to 450 µl acetonitrile: water (50∶50) containing 0.1% TFA, centrifuged at 5,000 rpm for 10 min to remove Insoluble material, and then the supernatant was analyzed by HPLC as described previously in §2.2. Elution was monitored (excitation λ = 543 nm; emission λ = 570 nm). The relative amount of TMR-RIF7 and TMR-IF7 that remained in the mouse plasma […].

[7] = TMR-labeled peptide 10 µg/ml, 37°C, 30 min, F-7000 FL spectrophotometer, mean ± SD, n = 3

Compound: RQWLLFI [RIF7]
- binding to Anxa1 inhibited by anti-Anxa1 antibody (Anxa1 [1]; anti-Anxa1 antibody 4 µg per well 30 min prior to TMR-labeled peptide 10 µg/ml): ~70%
- influence of normal rabbit IgG on binding capacity to cells (Anxa1 [1]): little influence
- binding to Anxa1 inhibited by non-labeled peptide (Anxa1 [2]; non-labeled peptide 10 µg/ml 30 min prior to TMR-labeled peptide 10 µg/ml): ~67%
- fluorescent intensity after incubation of peptide with complete medium prior to cells (A549 cells): decreased significantly
- signal intensity in lung tumor relative to IF7 (lung melanoma (B16-F10); after 4 h, mean fluorescent intensities in lung tumor region, n = 3): ~2.3 fold
- fluorescent signal in lung melanoma compared with the IF7 group (lung melanoma (B16-F10); all survey points (30 min, 4, 8, 12 h)): stronger fluorescent signal
- fluorescent intensity in KBv tumors compared to IF7-treated mice [3]: greater fluorescent intensity
- fluorescent signals in organs compared with the other peptide ([4]; 30 min and 4 h after i.v. injection): stronger fluorescent signals at both time points
- organ distribution of TMR-labeled peptide [4]: distributed mainly in liver, kidney and tumor tissue
- effect of normal rabbit IgG injected prior to peptide (Anxa1 [5]): did not alter targeted distribution in the lung

Compound: IFLLWQR [IF7, parent peptide]
- intensity of fluorescence, cells treated with peptide only (Anxa1 [1]; [7]): 19.32±0.89
- intensity of fluorescence, cells incubated with anti-Anxa1 antibody prior to peptide (Anxa1 [1]; anti-Anxa1 antibody 4 µg per well 30 min, then TMR-labeled peptide 10 µg/ml, 37°C, 30 min, mean ± SD, n = 3): 5.26±1.97
- influence of normal rabbit IgG on binding capacity to cells (Anxa1 [1]): little influence
- fluorescent intensity, cells treated with peptide only (competition assay) (Anxa1 [2]; [7]): 20.31±1.78
- fluorescent intensity, cells pre-incubated with non-labeled competitor (Anxa1 [2]; non-labeled peptide 10 µg/ml 30 min, then TMR-labeled peptide 10 µg/ml, 37°C, 30 min, mean ± SD, n = 3): 4.26±1.96
- fluorescent intensity after incubation of peptide with complete medium prior to cells (A549 cells): decreased significantly
- mean fluorescent intensity in the lung tumor region (lung melanoma (B16-F10); 12 h post intravenous injection, mean ± SD, n = 3): hardly detectable
- organ distribution of TMR-labeled peptide [4]: distributed mainly in liver, kidney and tumor tissue
- effect of normal rabbit IgG injected prior to peptide (Anxa1 [5]): did not alter targeted distribution in the lung
- time for which the tumor signal remained high (tumor): 40 min
- time to detection in the tumor after injection (tumor): ≤ 1 min
- time to plateau in the tumor (tumor): 9 min

Compound: CC[C@H](C)[C@H](NC(=O)c1ccc2c(c1)C(=O)OC21c2ccc(N(C)C)cc2Oc2cc(N(C)C)ccc21)C(=O)N[C@@H](Cc1ccccc1)C(=O)N[C@@H](CC(C)C)C(=O)N[C@@H](CC(C)C)C(=O)N[C@@H](Cc1c[nH]c2ccccc12)C(=O)N[C@@H](CCC(N)=O)C(=O)N[C@@H](CCCNC(=N)N)C(=O)O [TMR-IF7] (5TAMRA-IFLLWQR-OH)
- metabolised at 0.5 h, 198 µg/mL ([6]; fresh heparinised mouse plasma, fresh heparin mouse plasma, 200 µg peptide in 10 µl DMSO per 1 ml plasma, within 30 min, HPLC with fluorescence detection (ex 543 nm, em 570 nm), mean of at least three experiments, read-out: peptide degraded in mouse plasma): > 80%
- susceptibility to mouse plasma proteases (in words) [6]: rapidly degraded

Compound: CC[C@@H](C)[C@@H](NC(=O)[C@@H](Cc1ccccc1)NC(=O)[C@@H](CC(C)C)NC(=O)[C@@H](CC(C)C)NC(=O)[C@@H](Cc1c[nH]c2ccccc12)NC(=O)[C@@H](CCC(N)=O)NC(=O)[C@@H](CCCNC(=N)N)NC(=O)c1ccc2c(c1)C(=O)OC21c2ccc(N(C)C)cc2Oc2cc(N(C)C)ccc21)C(=O)O [TMR-RIF7] (5TAMRA-[dR][dQ][dW][dL][dL][dF][dI]-OH)
- remaining at 6 h, 198 µg/mL ([6]; fresh heparinised mouse plasma, fresh heparin mouse plasma, 200 µg peptide in 10 µl DMSO per 1 ml plasma, within 6 h, HPLC with fluorescence detection (ex 543 nm, em 570 nm), mean of at least three experiments, read-out: peptide remaining intact in mouse plasma): ~70%
- susceptibility to mouse plasma proteases (in words) [6]: did not change significantly
- resistance to protease in complete medium (qualitative imaging) (A549 cells; complete medium with 10% FBS, 37°C prior to incubation with A549 cells): more resistant to protease in complete medium than TMR-IF7

Compound: RQWLLFI [RQ7, control peptide]
- signals in the lung ([4]; different time points after i.v. injection, control peptide): remained at background levels
